As usually defined, the IC50 is the point on the concentration scale where inhibition reaches its midpoint. A high value points to weaker potency in that assay. As usually defined, the Kd is the concentration at which binding is half-saturated. Lower therefore signals tighter binding.

Sequence of Bromodomain-containing protein 8 (Q9H0E9 whole entry): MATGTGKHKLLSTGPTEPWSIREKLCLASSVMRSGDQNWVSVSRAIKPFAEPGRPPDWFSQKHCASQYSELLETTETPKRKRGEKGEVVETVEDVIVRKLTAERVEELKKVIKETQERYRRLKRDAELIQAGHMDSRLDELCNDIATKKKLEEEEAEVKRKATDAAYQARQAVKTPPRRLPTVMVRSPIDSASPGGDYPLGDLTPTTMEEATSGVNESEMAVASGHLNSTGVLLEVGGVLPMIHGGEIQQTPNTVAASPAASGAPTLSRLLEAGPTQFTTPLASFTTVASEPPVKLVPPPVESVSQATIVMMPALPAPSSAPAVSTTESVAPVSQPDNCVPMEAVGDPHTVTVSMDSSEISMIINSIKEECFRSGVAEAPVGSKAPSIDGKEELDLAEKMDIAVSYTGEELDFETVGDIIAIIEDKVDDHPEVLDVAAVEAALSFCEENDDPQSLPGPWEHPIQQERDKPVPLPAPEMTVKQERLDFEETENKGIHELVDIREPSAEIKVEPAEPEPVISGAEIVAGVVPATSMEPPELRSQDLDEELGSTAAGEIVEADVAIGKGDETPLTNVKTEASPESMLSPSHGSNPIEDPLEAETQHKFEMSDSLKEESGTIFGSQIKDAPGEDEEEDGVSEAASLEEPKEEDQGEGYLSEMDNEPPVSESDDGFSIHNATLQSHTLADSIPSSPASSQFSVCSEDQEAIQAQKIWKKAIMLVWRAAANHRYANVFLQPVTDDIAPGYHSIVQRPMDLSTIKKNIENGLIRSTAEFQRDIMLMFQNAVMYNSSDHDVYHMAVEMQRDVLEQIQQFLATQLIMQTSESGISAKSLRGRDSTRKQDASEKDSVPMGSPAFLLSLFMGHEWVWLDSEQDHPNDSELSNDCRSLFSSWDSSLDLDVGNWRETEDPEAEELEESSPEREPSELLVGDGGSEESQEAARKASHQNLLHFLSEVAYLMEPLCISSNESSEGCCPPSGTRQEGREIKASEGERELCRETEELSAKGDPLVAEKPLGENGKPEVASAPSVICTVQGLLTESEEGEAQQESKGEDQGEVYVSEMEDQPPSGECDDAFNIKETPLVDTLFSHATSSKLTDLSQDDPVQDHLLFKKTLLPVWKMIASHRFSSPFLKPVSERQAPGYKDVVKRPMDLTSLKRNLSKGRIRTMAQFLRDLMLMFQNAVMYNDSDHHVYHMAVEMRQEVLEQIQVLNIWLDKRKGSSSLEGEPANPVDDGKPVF

For one series, the target named is Tyrosine-protein kinase JAK1 (Homo sapiens) (UniProt P23458). Put plainly: Inhibition of JAK1 (unknown origin) at 1 uM relative to control.
Conditions: not given
Turning to `C/C=C/Cn1cc(-c2ccc(C(=O)N3CCOCC3)cc2)c2cc[nH]c2c1=O`, the inhibition was -3.9%.

Another series concerns the target L-type calcium channel, verapamil binding site (Rattus norvegicus, UniProt P22002+P27732+Q02485). Nature of the series: Displacement of [3H]D 888 from rat brain L-type calcium channel verapamil binding site at 10 uM after 120 mins by scintillation counting analysis relative to control. The following applies: rat brain L-type calcium channel preparation, probe [3H]D 888, read-out: Activity. A general note: In a radioligand displacement assay an active substance lowers the binding of a labelled ligand.
In the case of `C/C=C/Cn1cc(-c2ccc(C(=O)N3CCOCC3)cc2)c2cc[nH]c2c1=O`, the inhibition at 2 h, 10 µM is 7%.

Test system in another series: not listed separately
Nature of the series: Cytotoxicity against human VMRC-LCD cells measured after 8 days. The following applies: 192 h. The class given is functional, cell-based.
The molecule `C/C=C/Cn1cc(-c2ccc(C(=O)N3CCOCC3)cc2)c2cc[nH]c2c1=O` had an IC50 of 20 µM.

The subject of another series is KNS-62. Put plainly: Cytotoxicity against human KNS-62 cells measured after 8 days. It is filed as functional, cell-based. To be noted: KNS-62, 192 h.
In turn, `C/C=C/Cn1cc(-c2ccc(C(=O)N3CCOCC3)cc2)c2cc[nH]c2c1=O` returned an IC50 of 20 µM.

A further series addresses T1, Peregrin (Homo sapiens, UniProt P55201).
T1 sequence (P55201 whole entry): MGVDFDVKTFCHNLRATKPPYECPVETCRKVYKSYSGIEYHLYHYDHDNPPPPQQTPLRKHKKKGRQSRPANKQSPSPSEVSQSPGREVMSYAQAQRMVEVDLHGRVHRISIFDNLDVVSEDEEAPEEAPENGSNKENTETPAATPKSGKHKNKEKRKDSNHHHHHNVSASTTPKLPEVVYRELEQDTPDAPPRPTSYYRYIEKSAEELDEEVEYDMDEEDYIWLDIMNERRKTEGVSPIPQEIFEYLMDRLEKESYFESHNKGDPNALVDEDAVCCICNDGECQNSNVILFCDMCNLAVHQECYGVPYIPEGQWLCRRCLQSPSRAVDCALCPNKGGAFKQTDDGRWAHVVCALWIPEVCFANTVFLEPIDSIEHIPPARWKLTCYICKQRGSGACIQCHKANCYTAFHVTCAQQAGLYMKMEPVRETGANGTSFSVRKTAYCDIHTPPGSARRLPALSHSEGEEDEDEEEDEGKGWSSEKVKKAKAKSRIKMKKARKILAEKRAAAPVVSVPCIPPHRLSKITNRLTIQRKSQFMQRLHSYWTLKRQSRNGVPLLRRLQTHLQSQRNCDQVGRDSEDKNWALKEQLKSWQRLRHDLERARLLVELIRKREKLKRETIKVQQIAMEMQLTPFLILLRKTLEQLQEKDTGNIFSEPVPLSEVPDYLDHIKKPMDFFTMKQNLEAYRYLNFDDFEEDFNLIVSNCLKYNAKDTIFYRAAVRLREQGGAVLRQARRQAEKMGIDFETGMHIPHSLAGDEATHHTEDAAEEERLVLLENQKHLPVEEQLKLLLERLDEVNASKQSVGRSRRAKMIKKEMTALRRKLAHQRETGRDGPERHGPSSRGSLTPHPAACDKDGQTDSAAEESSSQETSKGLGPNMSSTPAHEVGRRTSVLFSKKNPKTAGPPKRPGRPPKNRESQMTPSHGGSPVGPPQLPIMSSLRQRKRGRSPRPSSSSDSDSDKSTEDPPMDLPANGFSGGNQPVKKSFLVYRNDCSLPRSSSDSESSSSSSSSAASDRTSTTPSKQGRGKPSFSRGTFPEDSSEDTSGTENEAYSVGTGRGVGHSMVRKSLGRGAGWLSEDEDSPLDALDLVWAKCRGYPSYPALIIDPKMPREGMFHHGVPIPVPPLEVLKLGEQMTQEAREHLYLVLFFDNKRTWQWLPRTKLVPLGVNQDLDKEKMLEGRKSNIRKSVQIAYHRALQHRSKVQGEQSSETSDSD
Nature of the series: Binding affinity to human partial length BRPF1 (E627 to G740 residues) expressed in bacterial expression system by BROMOscan assay.
Conditions: not given
Molecule `C/C=C/Cn1cc(-c2cc(OC)c(C(C)(C)O)cc2OC)c2cc(C)[nH]c2c1=O` came in with an equilibrium dissociation constant (Kd) of more than 10 µM.
Same read-out and setting: the same measure for `C/C=C/Cn1cc(-c2ccc(C(=O)N3CCOCC3)cc2)c2cc[nH]c2c1=O`: more than 10 µM.

In the next series the target is T2, Bromodomain-containing protein 3 (Homo sapiens, UniProt Q15059). Nature of the series: Binding affinity to human partial length BRD3 bromodomain 1 (P24 to E144 residues) expressed in bacterial expression system by BROMOscan assay.
T2 sequence (Q15059 whole entry, the tested form may be a part): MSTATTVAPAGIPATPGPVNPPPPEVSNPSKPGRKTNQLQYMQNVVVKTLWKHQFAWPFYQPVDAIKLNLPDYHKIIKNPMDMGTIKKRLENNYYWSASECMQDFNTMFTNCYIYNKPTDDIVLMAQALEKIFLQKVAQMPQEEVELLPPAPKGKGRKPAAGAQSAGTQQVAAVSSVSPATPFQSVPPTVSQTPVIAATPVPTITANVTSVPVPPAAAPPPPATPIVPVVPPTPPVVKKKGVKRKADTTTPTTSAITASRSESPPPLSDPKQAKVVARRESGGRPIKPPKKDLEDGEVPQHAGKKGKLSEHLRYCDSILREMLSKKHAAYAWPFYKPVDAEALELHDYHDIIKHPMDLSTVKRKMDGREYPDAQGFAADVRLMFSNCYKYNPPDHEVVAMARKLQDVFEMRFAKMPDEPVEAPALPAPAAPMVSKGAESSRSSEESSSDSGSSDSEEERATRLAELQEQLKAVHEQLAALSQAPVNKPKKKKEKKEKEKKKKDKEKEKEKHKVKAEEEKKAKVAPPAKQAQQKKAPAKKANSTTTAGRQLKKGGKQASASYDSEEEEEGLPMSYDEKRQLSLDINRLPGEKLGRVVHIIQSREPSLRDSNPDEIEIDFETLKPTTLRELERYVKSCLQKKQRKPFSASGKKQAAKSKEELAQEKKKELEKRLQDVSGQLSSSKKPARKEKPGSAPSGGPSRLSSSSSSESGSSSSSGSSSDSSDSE
Conditions: not given
`C/C=C/Cn1cc(-c2cc(OC)c(C(C)(C)O)cc2OC)c2cc(C)[nH]c2c1=O` yielded an equilibrium dissociation constant (Kd) of 9.2 µM.
Consider `C/C=C/Cn1cc(-c2ccc(C(=O)N3CCOCC3)cc2)c2cc[nH]c2c1=O`, for which the Kd worked out at 6.3 µM.

Test system in a further series: not listed separately
Put plainly: Cytotoxicity against human SK-MEL-23 cells measured after 8 days. It is filed as functional, cell-based. To be noted: SK-MEL-23, 192 h.
Molecule `C/C=C/Cn1cc(-c2ccc(C(=O)N3CCOCC3)cc2)c2cc[nH]c2c1=O` registered an IC50 of 20 µM.

Test system in a further series: not listed separately
Nature of the series: Cytotoxicity against human KMS-21BM cells measured after 8 days. The class given is functional, cell-based. The following applies: 192 h.
`C/C=C/Cn1cc(-c2ccc(C(=O)N3CCOCC3)cc2)c2cc[nH]c2c1=O` came in with an IC50 of 14.8 µM.

In a further series the test system is Raji. Put plainly: Cytotoxicity against human Raji cells measured after 8 days. To be noted: 192 h. It is filed as functional, cell-based.
For the molecule `C/C=C/Cn1cc(-c2ccc(C(=O)N3CCOCC3)cc2)c2cc[nH]c2c1=O`, the IC50 worked out at 20 µM.

A further series deals with GP5d. Nature of the series: Cytotoxicity against human GP5d cells measured after 8 days. It is filed as functional, cell-based. The following applies: 192 h.
`C/C=C/Cn1cc(-c2ccc(C(=O)N3CCOCC3)cc2)c2cc[nH]c2c1=O` showed an IC50 of 20 µM.

Another series relates to Granta-519. Put plainly: Cytotoxicity against human Granta-519 cells measured after 8 days. The class given is functional, cell-based. To be noted: Granta-519, 192 h.
The molecule `C/C=C/Cn1cc(-c2ccc(C(=O)N3CCOCC3)cc2)c2cc[nH]c2c1=O` displayed an IC50 of 20 µM.

For the next series, the target named is cAMP-dependent protein kinase (PKA) (Homo sapiens) (UniProt P22694+P17612+P22612). Nature of the series: Inhibition of PKA (unknown origin) at 1 uM relative to control. The class given is protein assay.
Conditions: not given
Consider `C/C=C/Cn1cc(-c2ccc(C(=O)N3CCOCC3)cc2)c2cc[nH]c2c1=O`, for which the inhibition was -6.8%.

In another series the target is Sodium-dependent dopamine transporter (Homo sapiens) (UniProt Q01959). Nature of the series: Displacement of […] from recombinant human Dopamine transporter at 10 uM after 120 mins by scintillation counting analysis relative to control.
Sequence of Sodium-dependent dopamine transporter (Homo sapiens) (Q01959 whole entry): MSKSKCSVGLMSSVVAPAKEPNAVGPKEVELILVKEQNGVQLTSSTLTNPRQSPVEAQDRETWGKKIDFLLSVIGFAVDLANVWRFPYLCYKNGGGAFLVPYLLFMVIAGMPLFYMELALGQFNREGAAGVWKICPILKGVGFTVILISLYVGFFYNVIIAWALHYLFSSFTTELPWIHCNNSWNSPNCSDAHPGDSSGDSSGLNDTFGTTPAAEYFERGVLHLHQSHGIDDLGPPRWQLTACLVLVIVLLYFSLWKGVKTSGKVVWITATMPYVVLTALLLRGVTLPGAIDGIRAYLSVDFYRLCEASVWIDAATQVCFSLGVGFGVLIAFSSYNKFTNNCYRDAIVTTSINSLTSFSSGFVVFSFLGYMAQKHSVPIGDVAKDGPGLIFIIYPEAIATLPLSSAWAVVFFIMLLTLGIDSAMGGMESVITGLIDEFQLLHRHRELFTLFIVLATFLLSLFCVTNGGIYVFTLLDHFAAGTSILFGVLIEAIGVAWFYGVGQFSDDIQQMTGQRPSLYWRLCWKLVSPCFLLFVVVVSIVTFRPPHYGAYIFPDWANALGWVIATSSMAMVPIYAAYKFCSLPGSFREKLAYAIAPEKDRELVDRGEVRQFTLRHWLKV
Conditions: not given
As for `C/C=C/Cn1cc(-c2ccc(C(=O)N3CCOCC3)cc2)c2cc[nH]c2c1=O`, the Activity turned out to be 15%.

Test system in a further series: not listed separately
Put plainly: Cytotoxicity against human HCA7 cells measured after 8 days. It is filed as functional, cell-based. To be noted: HCA-7, 192 h.
The molecule `C/C=C/Cn1cc(-c2ccc(C(=O)N3CCOCC3)cc2)c2cc[nH]c2c1=O` registered an IC50 of 20 µM.

Another series addresses T3, Endothelin-1 receptor (Homo sapiens) (UniProt P25101).
T3 sequence (whole entry): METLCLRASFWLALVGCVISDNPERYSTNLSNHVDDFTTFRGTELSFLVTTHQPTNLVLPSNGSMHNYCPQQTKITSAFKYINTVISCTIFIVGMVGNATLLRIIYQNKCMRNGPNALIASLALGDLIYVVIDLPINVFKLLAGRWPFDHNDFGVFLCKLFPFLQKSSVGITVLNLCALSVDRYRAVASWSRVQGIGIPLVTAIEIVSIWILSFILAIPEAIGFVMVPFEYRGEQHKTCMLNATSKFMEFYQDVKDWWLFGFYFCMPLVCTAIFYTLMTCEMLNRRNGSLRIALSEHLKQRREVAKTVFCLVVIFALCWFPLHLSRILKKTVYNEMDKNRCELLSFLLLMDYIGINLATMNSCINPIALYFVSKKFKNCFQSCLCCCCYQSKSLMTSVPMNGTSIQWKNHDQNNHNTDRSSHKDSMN
Put plainly: Displacement of [125I]-endothelin-1 from human recombinant ETA receptor at 10 uM after 120 mins by scintillation counting analysis relative to control.
Conditions: not given
With `C/C=C/Cn1cc(-c2ccc(C(=O)N3CCOCC3)cc2)c2cc[nH]c2c1=O`, the Activity came out at 10%.

Another series addresses Bromodomain-containing protein 8 (Homo sapiens, UniProt Q9H0E9). Nature of the series: Binding affinity to BRD8 bromodomain 1 (unknown origin) by BROMOscan assay.
Conditions: not given
Consider `C/C=C/Cn1cc(-c2cc(OC)c(C(C)(C)O)cc2OC)c2cc(C)[nH]c2c1=O`, for which the Kd is more than 10 µM.
With `C/C=C/Cn1cc(-c2ccc(C(=O)N3CCOCC3)cc2)c2cc[nH]c2c1=O`, the Kd is more than 10 µM.

Another series concerns NCI-H226. Put plainly: Cytotoxicity against human NCI-H226 cells measured after 8 days. The class given is functional, cell-based. To be noted: NCI-H226, 192 h.
In turn, `C/C=C/Cn1cc(-c2ccc(C(=O)N3CCOCC3)cc2)c2cc[nH]c2c1=O` had an IC50 of 20 µM.

The next series relates to BT-549. Nature of the series: Cytotoxicity against human BT-549 cells measured after 8 days. The class given is functional, cell-based. To be noted: BT-549, 192 h.
In turn, `C/C=C/Cn1cc(-c2ccc(C(=O)N3CCOCC3)cc2)c2cc[nH]c2c1=O` registered an IC50 of 20 µM.

The subject of a further series is MKN-45. Nature of the series: Cytotoxicity against human MKN-45 cells measured after 8 days. It is filed as functional, cell-based. To be noted: MKN-45, 192 h.
In turn, `C/C=C/Cn1cc(-c2ccc(C(=O)N3CCOCC3)cc2)c2cc[nH]c2c1=O` yielded an IC50 of 20 µM.

Another series concerns the target T2, Bromodomain-containing protein 3. Put plainly: Binding affinity to human partial length BRD3 bromodomain 2 (G306 to P416 residues) expressed in bacterial expression system by BROMOscan assay.
Conditions: not given
Turning to `C/C=C/Cn1cc(-c2cc(OC)c(C(C)(C)O)cc2OC)c2cc(C)[nH]c2c1=O`, the Kd was more than 10 µM.
`C/C=C/Cn1cc(-c2ccc(C(=O)N3CCOCC3)cc2)c2cc[nH]c2c1=O`: the affinity, expressed as Kd, was 4.4 µM.

The subject of the next series is CAL-51. Put plainly: Cytotoxicity against human CAL-51 cells measured after 8 days. It is filed as functional, cell-based. To be noted: CAL-51, 192 h.
`C/C=C/Cn1cc(-c2ccc(C(=O)N3CCOCC3)cc2)c2cc[nH]c2c1=O` yielded an IC50 of 20 µM.

A further series deals with CREB-binding protein (Homo sapiens, UniProt Q92793). Nature of the series: Binding affinity to human partial length CREBBP (R1081 to G1197 residues) expressed in bacterial expression system by BROMOscan assay.
Sequence of CREB-binding protein (Q92793 whole entry, the tested form may be a part): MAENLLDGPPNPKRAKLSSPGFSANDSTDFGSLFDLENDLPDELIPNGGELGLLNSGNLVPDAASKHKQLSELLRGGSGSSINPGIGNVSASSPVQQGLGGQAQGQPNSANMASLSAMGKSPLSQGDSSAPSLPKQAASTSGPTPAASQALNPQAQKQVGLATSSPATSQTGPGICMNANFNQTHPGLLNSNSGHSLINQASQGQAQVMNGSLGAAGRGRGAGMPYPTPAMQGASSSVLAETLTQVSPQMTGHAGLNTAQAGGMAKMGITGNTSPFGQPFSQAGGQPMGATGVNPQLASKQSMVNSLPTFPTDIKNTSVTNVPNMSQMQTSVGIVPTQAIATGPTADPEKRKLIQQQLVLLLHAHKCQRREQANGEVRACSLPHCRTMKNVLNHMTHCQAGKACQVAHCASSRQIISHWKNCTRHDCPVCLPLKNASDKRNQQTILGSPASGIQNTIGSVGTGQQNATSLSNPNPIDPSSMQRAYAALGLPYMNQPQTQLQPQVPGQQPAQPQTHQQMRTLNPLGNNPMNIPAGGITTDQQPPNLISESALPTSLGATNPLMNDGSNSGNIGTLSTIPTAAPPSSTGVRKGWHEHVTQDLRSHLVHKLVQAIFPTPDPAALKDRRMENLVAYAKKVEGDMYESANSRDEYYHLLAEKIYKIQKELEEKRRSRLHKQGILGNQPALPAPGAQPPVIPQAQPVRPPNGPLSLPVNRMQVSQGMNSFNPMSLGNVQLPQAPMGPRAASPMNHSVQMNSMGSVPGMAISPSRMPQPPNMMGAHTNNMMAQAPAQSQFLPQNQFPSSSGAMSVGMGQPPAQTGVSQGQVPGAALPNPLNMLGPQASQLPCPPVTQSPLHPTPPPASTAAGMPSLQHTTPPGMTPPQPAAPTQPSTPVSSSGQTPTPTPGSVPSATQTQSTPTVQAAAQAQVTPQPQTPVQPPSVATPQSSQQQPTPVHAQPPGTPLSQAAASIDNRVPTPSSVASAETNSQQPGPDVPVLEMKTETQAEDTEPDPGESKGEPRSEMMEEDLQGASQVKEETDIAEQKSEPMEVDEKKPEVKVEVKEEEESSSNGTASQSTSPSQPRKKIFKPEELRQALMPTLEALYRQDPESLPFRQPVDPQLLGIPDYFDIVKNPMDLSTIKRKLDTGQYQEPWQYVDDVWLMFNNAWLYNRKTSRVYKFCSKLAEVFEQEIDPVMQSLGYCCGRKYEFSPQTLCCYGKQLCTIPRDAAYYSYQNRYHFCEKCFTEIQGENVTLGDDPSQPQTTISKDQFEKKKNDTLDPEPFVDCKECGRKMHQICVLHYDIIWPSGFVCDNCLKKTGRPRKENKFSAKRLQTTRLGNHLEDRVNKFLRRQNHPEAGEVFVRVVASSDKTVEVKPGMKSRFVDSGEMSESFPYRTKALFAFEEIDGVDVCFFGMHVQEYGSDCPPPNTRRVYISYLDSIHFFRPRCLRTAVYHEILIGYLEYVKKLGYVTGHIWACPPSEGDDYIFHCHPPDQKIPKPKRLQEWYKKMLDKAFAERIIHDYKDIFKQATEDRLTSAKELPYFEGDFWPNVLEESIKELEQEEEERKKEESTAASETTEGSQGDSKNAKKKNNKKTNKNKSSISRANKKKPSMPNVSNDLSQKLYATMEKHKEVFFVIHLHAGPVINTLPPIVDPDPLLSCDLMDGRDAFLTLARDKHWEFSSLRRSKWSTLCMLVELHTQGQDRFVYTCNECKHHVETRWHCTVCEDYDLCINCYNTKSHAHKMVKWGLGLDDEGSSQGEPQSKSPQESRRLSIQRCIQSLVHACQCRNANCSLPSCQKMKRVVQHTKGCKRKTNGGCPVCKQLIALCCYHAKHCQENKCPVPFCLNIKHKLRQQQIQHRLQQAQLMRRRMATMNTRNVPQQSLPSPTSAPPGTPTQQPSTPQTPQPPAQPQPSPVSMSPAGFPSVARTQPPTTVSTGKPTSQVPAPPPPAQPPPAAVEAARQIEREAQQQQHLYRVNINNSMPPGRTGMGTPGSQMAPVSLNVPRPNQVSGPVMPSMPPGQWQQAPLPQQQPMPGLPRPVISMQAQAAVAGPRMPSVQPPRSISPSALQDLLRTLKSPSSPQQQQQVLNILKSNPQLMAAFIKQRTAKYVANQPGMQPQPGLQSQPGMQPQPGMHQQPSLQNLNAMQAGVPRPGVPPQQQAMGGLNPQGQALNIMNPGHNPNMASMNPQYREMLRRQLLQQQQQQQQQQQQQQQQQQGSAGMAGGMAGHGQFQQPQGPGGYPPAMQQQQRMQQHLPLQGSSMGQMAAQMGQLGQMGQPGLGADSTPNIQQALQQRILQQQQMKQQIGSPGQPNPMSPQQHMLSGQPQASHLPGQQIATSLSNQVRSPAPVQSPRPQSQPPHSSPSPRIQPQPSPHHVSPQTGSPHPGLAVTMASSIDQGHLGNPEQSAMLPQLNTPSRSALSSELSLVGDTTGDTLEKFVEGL
Conditions: not given
`C/C=C/Cn1cc(-c2cc(OC)c(C(C)(C)O)cc2OC)c2cc(C)[nH]c2c1=O` registered a Kd of more than 10 µM.
Turning to `C/C=C/Cn1cc(-c2ccc(C(=O)N3CCOCC3)cc2)c2cc[nH]c2c1=O`, the Kd was more than 10 µM.

The next series deals with NCI-H1975. Nature of the series: Cytotoxicity against human NCI-H1975 cells measured after 8 days. The class given is functional, cell-based. The following applies: NCI-H1975, 192 h.
As to `C/C=C/Cn1cc(-c2ccc(C(=O)N3CCOCC3)cc2)c2cc[nH]c2c1=O`, the IC50 was 20 µM.

Source of the values: ChEMBL document CHEMBL5260810, “Inhibition of bromodomain-containing protein 9 for the prevention of epigenetically-defined drug resistance” (Bioorg Med Chem Lett, 2017).
